Measurements as given in patent US20230062248A1, “METHODS FOR PREDICTING IXABEPILONE RESPONSIVENESS IN CANCER PATIENTS” (Allarity Therapeutics Europe ApS, priority 2020, published 2023).

Tested on: breast cancer patients
Assay: Pathological complete remission (pCR) in breast cancer patients treated neoadjuvantly with ixabepilone, split by DRP prediction score (GSE41998)
Assay type: in vivo, human
Settings: pre-treatment biopsy
Method: An mRNA-based predictor of responsiveness to ixabepilone was developed according to the methods of the invention and applied to gene expression data prepared using clinical samples from breast cancer patients, which was downloaded from Gene Expression Omnibus under accession number GSE41998 (FIG. 1). The samples were diagnostic biopsies analyzed with Affymetrix GeneChips. All the genes listed in Table 2 were measured from clinical samples on the Affymetrix GeneChip and their mean expression subtracted from the mean of all the genes in Table 1. The difference (e.g., a difference score) was then compared to a difference score produced using measured levels of the sensitivity and resistance biomarkers of Tables 1 and 2 from a reference population consisting of 279 breast cancer patients participating in a clinical trial having two treatment arms ((1) ixabepilone and (2) paclitaxel treatment), producing a percentile score on a scale from 0 to 100. As part of the clinical trial, biopsy samples from breast cancer patients later treated neoadjuvantly with ixabepilone were collected prior to treatment. Patients' responses to ixabepilone were subsequently compared to predicted ixabepilone sensitivity using the methods disclosed herein. Patients with pathological complete remission (pCR) were predicted using the disclosed methods to be more sensitive to ixabepilone than patients with no pCR (No_pCR; FIG. 1).

SMILES: C/C(=C\c1csc(C)n1)[C@@H]1C[C@@H]2O[C@]2(C)CCC[C@H](C)[C@H](O)[C@@H](C)C(=O)C(C)(C)[C@@H](O)CC(=O)N1 [ixabepilone, (1S,3S,7S,10R,11S,12S,16R)-7,11 dihydroxy-8,8,10,12,16-pentamethyl-3-[(1E)-1-methyl-2-(2-methyl-4-thiazolyl)ethenyl] 17-oxa-4-azabicyclo[14.1.0] heptadecane-5,9-dione]
- Non responders (no pCR), number of patients (DRP negative (<=50)): 52
- Responders (pCR), number of patients (DRP negative (<=50)): 8
- Non responders (no pCR), number of patients (DRP positive (>50)): 45
- Responders (pCR), number of patients (DRP positive (>50)): 27
